Read-outs that look alike come from different tables or passages of the source.
Tests used:
[1] = molecular target: T1, human dihydroorotate dehydrogenase (HsDHODH) (Homo sapiens, UniProt Q02127); experiment: Inhibition of recombinant human DHODH enzyme activity; type: biochemical; conditions: for IC50: recombinant human DHODH; for inhibition at 1 µM: at 1,000 nM, read-out: Inhibition of HsDHODH activity (value in parentheses)
T1 construct: made in house

Complexes I–III = experiment: NADH-cytochrome c reductase (complexes I–III) activity, bovine mitochondria; type: biochemical
Description: (§1) Recombinant human DHODH was purified, crystallized, and assayed as previously described ([Inaoka et al., 2016]) without modification. Bovine mitochondrial fractions were prepared as previously described ([Kita et al., 1988]) and NADH dehydrogenase (complex I), succinate:quinone reductase (complex II), quinol oxidase (complexes III–IV), NADH-cytochrome c reductase (complexes I–III), and succinate-cytochrome c (complexes II–III) activities were assayed following an established method ([Takamiya et al., 1986]; [Miyadera et al., 2001]; [Matsumoto et al., 2008]; [Kido et al., 2010]; [Nihashi et al., 2017]).

Complex II–III = experiment: Succinate-cytochrome c reductase (complexes II–III) activity, bovine mitochondria; type: biochemical
Description: as §1

Complex I = experiment: NADH dehydrogenase (complex I) activity, bovine mitochondria; type: biochemical; conditions: at 5 μM
Description: as §1

Complex II = molecular target: T2, Complex II (Bos taurus, UniProt P35720+Q3T189+Q95123); experiment: Succinate:quinone reductase (complex II) activity, bovine mitochondria; type: biochemical
T2 construct: from tissue; host or cells: bovine mitochondrial fraction / sub-mitochondrial particles
T2 sequence (P31039 45-665 partner limits assumed): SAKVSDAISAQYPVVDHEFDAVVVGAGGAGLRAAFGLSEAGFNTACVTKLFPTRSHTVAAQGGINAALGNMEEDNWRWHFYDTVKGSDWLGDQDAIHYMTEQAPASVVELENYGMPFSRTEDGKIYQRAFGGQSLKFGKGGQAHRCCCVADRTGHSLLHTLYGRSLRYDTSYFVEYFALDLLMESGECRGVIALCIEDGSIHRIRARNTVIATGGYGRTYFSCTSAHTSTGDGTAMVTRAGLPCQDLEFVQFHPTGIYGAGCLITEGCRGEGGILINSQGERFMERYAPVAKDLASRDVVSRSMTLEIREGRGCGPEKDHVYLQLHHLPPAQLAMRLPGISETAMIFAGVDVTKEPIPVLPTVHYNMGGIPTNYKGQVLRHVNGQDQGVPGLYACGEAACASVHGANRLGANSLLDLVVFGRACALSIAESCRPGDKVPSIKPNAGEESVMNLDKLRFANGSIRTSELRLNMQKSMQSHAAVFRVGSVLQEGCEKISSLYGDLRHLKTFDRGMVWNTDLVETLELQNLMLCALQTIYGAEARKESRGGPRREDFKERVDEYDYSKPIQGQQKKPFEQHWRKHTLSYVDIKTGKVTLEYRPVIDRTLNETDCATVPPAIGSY
T2 sequence (Q3T189 29-280): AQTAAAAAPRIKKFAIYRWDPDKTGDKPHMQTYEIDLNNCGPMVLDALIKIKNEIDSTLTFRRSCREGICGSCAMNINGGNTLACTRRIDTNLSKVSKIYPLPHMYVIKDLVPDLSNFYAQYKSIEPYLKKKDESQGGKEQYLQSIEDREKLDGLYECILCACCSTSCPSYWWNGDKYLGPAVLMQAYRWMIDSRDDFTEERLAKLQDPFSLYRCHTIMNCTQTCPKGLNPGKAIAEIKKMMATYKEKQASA
T2 sequence (P35720 30-169): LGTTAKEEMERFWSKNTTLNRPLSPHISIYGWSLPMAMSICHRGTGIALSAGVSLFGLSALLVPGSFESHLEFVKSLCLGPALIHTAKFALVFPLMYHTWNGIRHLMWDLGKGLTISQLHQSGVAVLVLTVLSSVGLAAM
T2 sequence (Q95123 56-158): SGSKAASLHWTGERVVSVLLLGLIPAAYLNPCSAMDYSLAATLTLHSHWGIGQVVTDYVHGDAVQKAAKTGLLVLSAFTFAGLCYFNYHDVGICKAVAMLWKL

Complex III = molecular target: T3, Complex III (Bos taurus, UniProt P00157); experiment: Quinol oxidase (complex III) activity, bovine mitochondria; type: biochemical; conditions: ubiquinol oxidase activity
T3 construct: from tissue; host or cells: bovine mitochondrial fraction / sub-mitochondrial particles

HBC-4 = experiment: 39-cancer cell panel assay: HBC-4; type: cell-based; conditions: Homo sapiens, HBC4, Br
BSY-1 = experiment: 39-cancer cell panel assay: BSY-1; type: cell-based; conditions: Homo sapiens, Br
HBC-5 = experiment: 39-cancer cell panel assay: HBC-5; type: cell-based; conditions: Homo sapiens, HBC5, Br
MCF-7 = experiment: 39-cancer cell panel assay: MCF-7; type: cell-based; conditions: Homo sapiens, MCF7, Br
MDA-MB-231 = experiment: 39-cancer cell panel assay: MDA-MB-231; type: cell-based; conditions: Homo sapiens, Br
U251 = experiment: 39-cancer cell panel assay: U251; type: cell-based; conditions: Homo sapiens, U-251, CNS
SF-268 = experiment: 39-cancer cell panel assay: SF-268; type: cell-based; conditions: Homo sapiens, CNS
SF-295 = experiment: 39-cancer cell panel assay: SF-295; type: cell-based; conditions: Homo sapiens, CNS
SF-539 = experiment: 39-cancer cell panel assay: SF-539; type: cell-based; conditions: Homo sapiens, CNS
SNB-75 = experiment: 39-cancer cell panel assay: SNB-75; type: cell-based; conditions: Homo sapiens, CNS
SNB-78 = experiment: 39-cancer cell panel assay: SNB-78; type: cell-based; conditions: Homo sapiens, CNS
HCC2998 = experiment: 39-cancer cell panel assay: HCC2998; type: cell-based; conditions: Homo sapiens, HCC 2998, Co
KM-12 = experiment: 39-cancer cell panel assay: KM-12; type: cell-based, human; conditions: Co
HT-29 = experiment: 39-cancer cell panel assay: HT-29; type: cell-based; conditions: Homo sapiens, Co
HCT-15 = experiment: 39-cancer cell panel assay: HCT-15; type: cell-based; conditions: Homo sapiens, Co
HCT-116 = experiment: 39-cancer cell panel assay: HCT-116; type: cell-based; conditions: Homo sapiens, Co
NCI-H23 = experiment: 39-cancer cell panel assay: NCI-H23; type: cell-based; conditions: Homo sapiens, Lu
NCI-H226 = experiment: 39-cancer cell panel assay: NCI-H226; type: cell-based; conditions: Homo sapiens, Lu
NCI-H522 = experiment: 39-cancer cell panel assay: NCI-H522; type: cell-based; conditions: Homo sapiens, Lu
NCI-H460 = experiment: 39-cancer cell panel assay: NCI-H460; type: cell-based; conditions: Homo sapiens, Lu
A549 = experiment: 39-cancer cell panel assay: A549; type: cell-based; conditions: Homo sapiens, Lu
DMS273 = experiment: 39-cancer cell panel assay: DMS273; type: cell-based; conditions: Homo sapiens, DMS-273, Lu
DMS114 = experiment: 39-cancer cell panel assay: DMS114; type: cell-based; conditions: Homo sapiens, DMS-114, Lu
LOX-IMVI = experiment: 39-cancer cell panel assay: LOX-IMVI; type: cell-based; conditions: Homo sapiens, Me
OVCAR-3 = experiment: 39-cancer cell panel assay: OVCAR-3; type: cell-based; conditions: Homo sapiens, Ov
OVCAR-4 = experiment: 39-cancer cell panel assay: OVCAR-4; type: cell-based; conditions: Homo sapiens, Ov
OVCAR-5 = experiment: 39-cancer cell panel assay: OVCAR-5; type: cell-based; conditions: Homo sapiens, Ov
OVCAR-8 = experiment: 39-cancer cell panel assay: OVCAR-8; type: cell-based; conditions: Homo sapiens, Ov
SK-OV-3 = experiment: 39-cancer cell panel assay: SK-OV-3; type: cell-based; conditions: Homo sapiens
RXF-631L = experiment: 39-cancer cell panel assay: RXF-631L; type: cell-based; conditions: Homo sapiens, Re
ACHN = experiment: 39-cancer cell panel assay: ACHN; type: cell-based; conditions: Homo sapiens, Re
St-4 = experiment: 39-cancer cell panel assay: St-4; type: cell-based; conditions: Homo sapiens
MKN1 = experiment: 39-cancer cell panel assay: MKN1; type: cell-based; conditions: Homo sapiens, MKN-1, St
MKN7 = experiment: 39-cancer cell panel assay: MKN7; type: cell-based; conditions: Homo sapiens, MKN-7, St
MKN28 = experiment: 39-cancer cell panel assay: MKN28; type: cell-based; conditions: Homo sapiens, MKN-28, St
MKN45 = experiment: 39-cancer cell panel assay: MKN45; type: cell-based; conditions: Homo sapiens, MKN-45, St
MKN74 = experiment: 39-cancer cell panel assay: MKN74; type: cell-based; conditions: Homo sapiens, MKN-74, St
DU-145 = experiment: 39-cancer cell panel assay: DU-145; type: cell-based; conditions: Homo sapiens, Pro
PC-3 = experiment: 39-cancer cell panel assay: PC-3; type: cell-based; conditions: Homo sapiens, Pro
[2] = purified enzyme fixed at 10 nM, read-out: IC50 (nM), inhibition of human DHODH

T1 sequence (Q02127 whole entry): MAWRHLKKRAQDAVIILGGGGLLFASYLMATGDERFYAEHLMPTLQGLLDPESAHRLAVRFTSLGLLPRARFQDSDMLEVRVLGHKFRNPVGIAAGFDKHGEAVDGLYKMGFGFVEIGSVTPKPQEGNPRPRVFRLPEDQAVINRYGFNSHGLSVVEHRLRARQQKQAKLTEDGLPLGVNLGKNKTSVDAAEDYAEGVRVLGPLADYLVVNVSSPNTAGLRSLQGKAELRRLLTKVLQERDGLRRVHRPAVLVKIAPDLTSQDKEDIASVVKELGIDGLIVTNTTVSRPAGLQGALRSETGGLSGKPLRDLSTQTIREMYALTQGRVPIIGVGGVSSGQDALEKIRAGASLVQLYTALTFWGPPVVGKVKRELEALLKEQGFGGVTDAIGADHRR

C/C(=C\CC/C=C/Cc1c(O)c(Cl)c(C)c(C=O)c1O)COC(=O)C(C)(C)C [Compound 13]
fold decrease (IC50 compared to 4) ([1]; HsDHODH IC50 versus compound 4): about 3.5 fold | IC50 [1, 2]: 349 ± 96 nM

C=C(C)[C@H]1Cc2c(ccc3c2O[C@@H]2COc4cc(OC)c(OC)cc4[C@@H]2C3=O)O1 [Rotenone, reference compound]
IC50 ([1]; IC50 (μM) HsDHODH, Table 6): > 10000 nM | IC50 (Complexes I–III): 0.0063 ± 0.0001 µM | IC50 (Complex II–III): > 10 µM | Inhibition (%) Complex I (Complex I): 94 ± 1.5% | inhibition at 5 µM (Complex II): 6.4 ± 7.9% | inhibition at 5 µM (Complex III): 1.1 ± 2.8%

CC(C)=CCC/C(C)=C/Cc1c(O)cc(C)c(C=O)c1O [Compound 22, Colletorin B]
fold increase in the IC50 in comparison to 3 ([1]; HsDHODH IC50 versus compound 3): > 13 fold | inhibition at 1 µM [1]: 20% | IC50 [1, 2]: > 1000 nM

C/C(=C\Cc1c(O)c(Cl)c(C)c(C=O)c1O)CC/C=C(\C)C(C)O (centres unmarked) [Compound 6]
IC50 [1, 2]: 63.9 ± 11 nM | GI50 (HBC-4): 37 µM | GI50 (BSY-1): 59 µM | GI50 (HBC-5): 61 µM | GI50 (MCF-7): 36 µM | GI50 (MDA-MB-231): 36 µM | GI50 (U251): 5.1 µM | GI50 (SF-268): 12 µM | GI50 (SF-295): 16 µM | GI50 (SF-539): 5.3 µM | GI50 (SNB-75): 59 µM | GI50 (SNB-78): 43 µM | GI50 (HCC2998): 43 µM | GI50 (μM) KM-12 (KM-12): 32.0 µM | GI50 (HT-29): 39 µM | GI50 (HCT-15): 6.2 µM | GI50 (HCT-116): 14 µM | GI50 (NCI-H23): 39 µM | GI50 (NCI-H226): 24 µM | GI50 (NCI-H522): 22 µM | GI50 (NCI-H460): 12 µM | GI50 (A549): 37 µM | GI50 (DMS273): 18 µM | GI50 (DMS114): 35 µM | GI50 (LOX-IMVI): 13 µM | GI50 (OVCAR-3): 27 µM | GI50 (OVCAR-4): 39 µM | GI50 (OVCAR-5): 58 µM | GI50 (OVCAR-8): 25 µM | GI50 (SK-OV-3): 27 µM | GI50 (RXF-631L): 45 µM | GI50 (ACHN): 22 µM | GI50 (St-4): 44 µM | GI50 (MKN1): 44 µM | GI50 (MKN7): 36 µM | GI50 (MKN28): 36 µM | GI50 (MKN45): 65 µM | GI50 (MKN74): 26 µM | GI50 (DU-145): 25 µM | GI50 (PC-3): 22 µM

C/C(=C\COC(=O)C(C)(C)C)CC/C(C)=C/Cc1c(O)c(Cl)c(C)c(C=O)c1O [Compound 11]
IC50 [1, 2]: 67.2 ± 2.8 nM

C/C(=C\COC(=O)C(C)C)CC/C(C)=C/Cc1c(O)c(Cl)c(C)c(C=O)c1O [Compound 12]
GI50 (HBC-4): 9.4 µM | GI50 (BSY-1): 16 µM | GI50 (HBC-5): 18 µM | GI50 (MCF-7): 6.7 µM | GI50 (MDA-MB-231): 10 µM | GI50 (U251): 4.9 µM | GI50 (SF-268): 9.5 µM | GI50 (SF-295): 16 µM | GI50 (SF-539): 2.2 µM | GI50 (SNB-75): 28 µM | GI50 (SNB-78): 28 µM | GI50 (HCC2998): 16 µM | GI50 (μM) KM-12 (KM-12): 10.0 µM | GI50 (HT-29): 5.8 µM | GI50 (HCT-15): 1.9 µM | GI50 (HCT-116): 4.6 µM | GI50 (NCI-H23): 13 µM | GI50 (NCI-H226): 8 µM | GI50 (NCI-H522): 4.2 µM | GI50 (NCI-H460): 4.5 µM | GI50 (A549): 7.1 µM | GI50 (DMS273): 3.6 µM | GI50 (DMS114): 12 µM | GI50 (LOX-IMVI): 3.4 µM | GI50 (OVCAR-3): 7.1 µM | GI50 (OVCAR-4): 19 µM | GI50 (OVCAR-5): 22 µM | GI50 (OVCAR-8): 9.4 µM | GI50 (SK-OV-3): 49 µM | GI50 (RXF-631L): 16 µM | GI50 (ACHN): 16 µM | GI50 (St-4): 17 µM | GI50 (MKN1): 12 µM | GI50 (MKN7): 16 µM | GI50 (MKN28): 13 µM | GI50 (MKN45): 24 µM | GI50 (MKN74): 11 µM | GI50 (DU-145): 23 µM | GI50 (PC-3): 13 µM

CCCCC/C(C)=C/Cc1c(O)c(Cl)c(C)c(C=O)c1O [Compound 17]
IC50 [1, 2]: 71.4 ± 2.4 nM

COc1c(Cl)c(C)c(C=O)c(O)c1C/C=C(\C)CC/C=C(\C)[C@@H]1CC(=O)C(C)(C)O1 [Compound 21]
inhibition at 1 µM [1]: 3% | IC50 [1, 2]: > 1000 nM

C/C(=C\Cc1c(O)c(Cl)c(C)c(C=O)c1O)CC/C=C(\C)C1CC(=O)C(C)(C)O1 (racemic) [Compound 2, racemic-AF]
IC50 [1, 2]: 97.4 ± 7.3 nM
